In patent US20220079966A1, “HYALURONAN SYNTHESIS INHIBITION FOR TREATING AUTOIMMUNE, INFLAMMATORY, FIBROTIC, OR PROLIFERATIVE DISEASES OR DISORDERS” (The Board of Trustees of the Leland Stanford Junior …, priority 2018, published 2022):

How the values were obtained:
[1] = parameters: species or system mice; settings: mouse, in vivo
Protocol: The 4-MU (Alfa Aesar) was pressed into mouse chow (TestDiet, St. Louis, Mo.) and irradiated before shipment, as previously described (Nagy N., et al., Circulation. 2010; 122(22):2313-2322). This chow formulation delivers 250 mg/mouse/day, yielding a serum drug concentration of 640.3±17.2 nmol/L in mice, as measured by HPLC-MS. 4-MUG (ChemImpex, Wood Dale, Ill.) was distributed in the drinking water at a concentration of 2 mg/ml, delivering 10 mg/mouse/day, yielding a serum drug concentration of 357.1±72.6 ng/mL in mice, as measured by LC-MS/MS. Mice were initiated on 4-MU and 4-MUG at five, eight or twelve weeks of age, unless otherwise noted, and were maintained on this diet until they were euthanized, unless otherwise noted. For analysis of Foxp3+ regulatory T-cell numbers in naïve mice, mice were treated daily with 0.5 mg of 4-MU or 1.0 mg 4-MUG in 200 μl 0.08% carboxymethylcellulose in saline by intra-peritoneal injection.
4-methylumbelliferone-13C4 (Toronto Research Chemicals, Ontario, Canada) was used as the internal standard (IS) for 4-MU and 7-hydroxycoumarin β-D-glucuronide (Toronto Research Chemicals, Ontario, Canada) as the IS for 4-MUG. The neat stock solutions of 4-MU and 4-MUG were mixed and diluted in 50% methanol to prepare the spiking solutions ranging from 1 ng/mL to 5000 ng/mL for each compound. […]

[2] = Water solubility (statement); format: physicochemical
[3] = tested on: human cell lines; assay: HA synthesis by human cell lines (unpublished data); format: cell-based; settings: compared with parent drug 4-MU

| Compound | amount of 4-MUG in fat and muscle, 4-MU treatment compared to 4-MUG treatment [1] | water solubility [2] | inhibition of HA synthesis by human cell lines [3] |
| --- | --- | --- | --- |
| Cc1cc(=O)oc2cc(O)ccc12 [4-MU, 4-methylumbelliferone] | significantly higher amount of 4-MUG |  |  |
| Cc1cc(=O)oc2cc(O[C@@H]3O[C@H](C(=O)O)[C@@H](O)[C@H](O)[C@H]3O)ccc12 [4-MUG, 4-methylumbelliferone-glucuronide] |  | water-soluble | just as well as the parent drug |
